“And” between values parts separate entries of the source, which are not always exact repeats. Equal entries are not always repeated. “Also recorded” adds a separate entry of the source.
Key:
[1] = test system: atherosclerotic lesions of Ldlr−/− mice; test: Lesion apoptosis (TUNEL) and efferocytosis; type: in vivo, mouse
Method: Cell apoptosis was induced as indicated and detected by fluorescent labeled Annexin V staining and quantitated by either Flow Cytometry (BD 5 LSRII) or counting Annexin V positive cells in images captured under a fluorescent microscope. The apoptotic cells in atherosclerotic lesions were measured by TUNEL staining of cross-sections of atherosclerotic proximal aortas as previously described^30. The TUNEL positive cells not associated with live macrophages were considered free apoptotic cells and macrophage-associated apoptotic cells were considered phagocytosed as a measure of lesion efferocytosis as previously described^30.

[2] = test system: cyclooxygenase (COX); test: Urinary prostaglandin metabolites (LC/MS); type: in vivo, mouse
Method: The urine samples were collected in metabolic cages with 2 mice per cage after 12 weeks of treatment with 2-HOBA or water. The contents of PGE-M (20A), tetranor PGD-M (20B), 2,3-dinor-6-keto-PGF1 (20C) and 11-dehydro TxB2 (20D) were analyzed by LC/MS/MS. (20A-20D) Mean±SEM shown for each, N.S., Mann-Whitney Test.
Concentrations of PGE-M, tetranor PGD-M, 11-dehydro-TxB^2 (TxB-M) and PGI-M in urine were measured in the Eicosanoid Core Laboratory at Vanderbilt University Medical Center. Urine (1 mL) was acidified to pH 3 with HCl. [^2H4]-2,3-dinor-6-keto-PGF1a (internal standard for PGI-M quantification) and [^2H4]-11-dehydro-TxB2 were added, and the sample was treated with methyloxime HCl to convert analytes to the O-methyloxime derivative. The derivatized analytes were extracted using a C-18 Sep-Pak (Waters Corp. Milford, MA USA) and eluted with ethyl acetate as previously described^68. A [^2H6]—O-methyloxime PGE-M deuterated internal standard was then added for PGE-M and PGD-M quantification. The sample was dried under a stream of dry nitrogen at 37° C. and then reconstituted in 75 μL mobile phase A for LC/MS analysis.
LC was performed on a 2.0×50 mm, 1.7 μm particle Acquity BEH C18 column (Waters Corporation, Milford, MA, USA) using a Waters Acquity UPLC. […]
Urinary creatinine levels are measured using a test kit from Enzo Life Sciences. […]

[3] = test system: MDA-protein adducts; test: Proximal aortic lesion MDA adducts by immunofluorescence; type: in vivo, mouse; conditions: Ldlr−/− mice
From the text: The extent of atherosclerosis was examined both Oil-Red-O-stained cross-sections of the proximal aorta and by en face analysis^30. Briefly, cryosections of 10-micron thickness were cut from the region of the proximal aorta starting from the end of the aortic sinus and for 300 μm distally, according to the method of Paigen et al.^62. The Oil red-O staining of 15 serial sections from the root to ascending aortic region were used to quantify the Oil red-O-positive staining area per mouse. The mean from the 15 serial sections was applied for the aortic root atherosclerotic lesion size per mouse using the KS300 imaging system (Kontron Elektronik GmbH) as described^63, 64, 65. All other stains were done using sections that were 40 to 60 μm distal of the aortic sinus. For each mouse, 4 sections were stained and quantitation was done on the entire cross section of all 4 sections. For immunofluorescence staining, 5 μm cross-sections of the proximal aorta were fixed in cold acetone (Sigma), blocked in Background Buster (Innovex), incubated with indicated primary antibodies (MDA and CD68) at 4° C. for overnight. After incubation with fluorescent labeled secondary antibodies at 37 C for 1 hour, the nucleus was counterstained with Hoechst. Images were captured with a fluorescence microscope (Olympus IX81) and SlideBook 6 (Intelligent-Image) software and quantitated using ImageJ software (NIH)^66.

[4] = target: anti-MDA antibody / MDA-BSA (Bos taurus, UniProt P02769); test: Anti-MDA antibody interaction with MDA-BSA (dot blot); conditions: MDA-BSA incubated with 1× or 5× 2-HOBA
Method: A series of doses of MDA-BSA or MDA alone were incubated with 1× or 5×2-HOBA. Then 2 μl of each sample was loaded onto HyBond-C membrane, and incubated with the blocking buffer, primary anti-MDA antibody and fluorescent secondary antibody after vigorous washing. The image was captured by the Odyssey system (FIG. 10A) and quantitated by ImageJ software (FIG. 10B).

[5] = test system: primary macrophages; test: H2O2-induced apoptosis of macrophages (Annexin V); type: cell-based, mouse; conditions: 250 μM H2O2, 24 h, 500 μM compound; compared to vehicle or 4-HOBA
Method: (6A and 6B) Mouse aortic endothelial cells (6A) or primary macrophages (6B) were incubated for 24 h with 250 μM H2O2 alone or with either 4-HOBA or 2-HOBA (500 μM). Apoptotic cells were then detected by Annexin V staining and flow cytometry. (6C to 6H) The mRNA levels of IL-1β, IL-6, and TNF-α were analyzed by real time PCR in the peritoneal macrophages incubated for 24 h with either oxidized LDL (6C-6E) or 250 μM H2O2 (6F-6H) alone or with either 4-HOBA or 2-HOBA (500 μM). (6A to 6H) Data are presented as mean±SEM from three independent experiments, ***p<0.001, One-way ANOVA with Bonferroni's post hoc test.
Peritoneal macrophages were isolated from mice 72 hours post injection of 3% thioglycollate and maintained in DMEM plus 10% fetal bovine serum (FBS, Gibco) as previously described^30. Human aortic endothelial cells (HAECs) were obtained from Lonza and maintained in endothelial cell basal medium-2 plus 1% FBS and essential growth factors (Lonza).
Cell apoptosis was induced as indicated and detected by fluorescent labeled Annexin V staining and quantitated by either Flow Cytometry (BD 5 LSRII) or counting Annexin V positive cells in images captured under a fluorescent microscope. The apoptotic cells in atherosclerotic lesions were measured by TUNEL staining of cross-sections of atherosclerotic proximal aortas as previously described^30. […]

[6] = test system: atherosclerotic lesions of Ldlr−/− mice; test: Masson's Trichrome staining of lesions (collagen, fibrous cap, necrotic area); type: in vivo, mouse
From the text: Masson's Trichrome Staining was applied for measurement of atherosclerotic lesion collagen content, fibrous cap thickness and necrotic core size following the manufacturer's instructions (Sigma) and as previously described^30. Briefly, 5 μm cross-sections of proximal atherosclerotic aorta root were fixed with Bouin's solution, stained with hematoxylin for nuclei (black) and biebrich scarlet and phosphotungstic/phosphomolybdic acid for cytoplasm (red), and aniline blue for collagen (blue). Images were captured and analyzed for collagen content, atherosclerotic cap thickness and necrotic core by ImageJ software as described previously^30. The necrotic area is normalized to the total lesion area and is expressed as the % necrotic area.

Chain of anti-MDA antibody / MDA-BSA (P02769 25-607): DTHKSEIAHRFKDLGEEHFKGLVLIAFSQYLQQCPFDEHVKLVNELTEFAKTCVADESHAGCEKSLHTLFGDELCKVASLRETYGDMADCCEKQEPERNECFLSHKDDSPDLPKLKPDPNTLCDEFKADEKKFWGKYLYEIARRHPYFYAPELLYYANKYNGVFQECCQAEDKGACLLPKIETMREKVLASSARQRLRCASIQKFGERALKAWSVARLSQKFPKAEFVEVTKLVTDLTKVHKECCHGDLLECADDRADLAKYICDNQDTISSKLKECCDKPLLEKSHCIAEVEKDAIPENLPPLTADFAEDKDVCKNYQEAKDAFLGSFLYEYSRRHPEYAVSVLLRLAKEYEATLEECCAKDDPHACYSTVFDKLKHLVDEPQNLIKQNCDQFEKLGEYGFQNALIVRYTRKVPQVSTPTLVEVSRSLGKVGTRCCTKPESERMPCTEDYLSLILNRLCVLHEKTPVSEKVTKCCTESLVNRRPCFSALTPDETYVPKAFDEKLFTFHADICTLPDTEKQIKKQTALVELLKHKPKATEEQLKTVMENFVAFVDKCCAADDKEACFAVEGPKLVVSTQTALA

NCc1ccccc1O [2-HOBA, 2-hydroxybenzylamine]
efferocytosis and cell death in atherosclerotic lesions ([1]; Ldlr−/− mice): enhanced efferocytosis; also recorded: prevents cell death and increases efferocytosis | reduction of number of TUNEL positive cells in proximal aortic lesions ([1]; Ldlr−/− mice, compared to 4-HOBA): 72.4% | reduction of number of TUNEL positive cells in proximal aortic lesions ([1]; Ldlr−/− mice, compared to vehicle): 72% and 72.9% | increase of TUNEL positive cells not associated with macrophages ([1]; lesions of mice treated with 4-HOBA versus 2-HOBA): 2.0 fold | increase of TUNEL positive cells not associated with macrophages ([1]; lesions of mice treated with vehicle versus 2-HOBA): 1.9 fold | levels of major urinary prostaglandin metabolites (2,3-dinor-6-keto-PGF1, 11-dehydro TxB2, PGE-M, PGD-M) ([2]; Ldlr−/− mice, compared to the vehicle control): no significant differences; also recorded: did not impact | inhibition of COX in vivo ([2]; mice): not significantly inhibiting COX | reduction of proximal aortic MDA adduct levels (immunofluorescence) ([3]; compared to 4-HOBA): 66.8% | reduction of proximal aortic MDA adduct levels (immunofluorescence) ([3]; compared to vehicle alone): 68.5% | interference with antibody recognition of MDA-albumin adducts [4]: does not interfere; also recorded: does not impact | number of apoptotic cells, macrophage cultures [5]: markedly decreased | features of stable atherosclerotic plaques [6]: promotes features of stable atherosclerotic plaques | increase of collagen content of the proximal aorta ([6]; compared to 4-HOBA): 2.6 fold | increase of collagen content of the proximal aorta ([6]; compared to vehicle): 2.7 fold | decrease of % of necrotic area in the proximal aorta ([6]; versus 4-HOBA): 73.5% | fibrous cap thickness, fold greater ([6]; versus 4-HOBA): 2.29 fold
